Laboratory results: patent US4246343A, “Microbial detection and enumeration method and apparatus” (University of Virginia and National Aeronautics & Space …, priority 1979, dated 1981)
Where a name gives a salt, the structure may show the parent alone. Read-outs that look alike come from different tables or passages of the source.

Experiments:
[1] = test system: S. epidermidis (clinical); assay: Electroanalytically determined MIC / antimicrobial response curve, gram-positive bacteria; type: cell-based, Staphylococcus epidermidis; conditions: Staphylococcus epidermidis, 24 h
Description: (§1) Identical lots of media and antimicrobial agents were used in the susceptibility tests performed. The media used were trypticase soy agar (TSA) and TSB from Baltimore Biological Laboratories (BBL), Cockeysville, Maryland. The 12 antimicrobial agents used in the experiments, which were chosen on the basis of their clinical usefulness, were laboratory reference standards including the following antibiotics: penicillin G potassium, caphalothin sodium, tobramycin, vancomycin hydrochloride and streptomycin sulfate obtained from Eli Lilly and Co.; tetracycline and carbenicillin obtained from Pfizer Laboratories; ampicillin and sodium nafcillin from Wyeth Laboratories; kanamycin and methicillin from Bristol Laboratories; gentamicin from Schering.
(§2) The following cultures were obtained from Hoffmann-LaRoche, Inc. and were derived from the American Type Culture Collection (ATCC) organisms as indicated: Escherichia coli, "Seattle Strain" ATCC 25922, Klebsiella pneumoniae ATCC 27736; Pseudomonas aeruginosa, ATCC 9721. These bacteria are gram negative bacteria. The following bacteria are gram positive: Staphylococcus aureus, "Seattle Strain" ATCC 25923; Staphylococcus epiderdimis ATCC 14990; and Streptococcus pyogenes, ATCC 10389. In addition, clinical specimens of these same six organisms were obtained from sensitivity isolates from the University of Virginia Hospital Department of Clinical Pathology Bacteriology Section. These organisms, both pathogenic and non-pathogenic (Staphylococcus epidermidis), were chosen because they are some of the most frequently encountered organisms in clinical isolates.
(§3) Inocula were prepared by making a 100-fold dilution×2 of an overnight TSB culture of the organism to be tested in sterile TSB prewarmed to 35° C. Thus, the total dilution of overnight stock was 10^-4. From the 10^-4 series, 0.3 ml was transferred to a test tube (Falcon, disposable #2057) containing 2.7 ml of TSB if the growth control, or 2.6 ml of TSB plus 0.1 ml of a particular concentration of an appropriate antibiotic to be tested. The antibiotic was weighed on an analytical balance, according to each agent's activity standard, and diluted with sterile distilled water in a volumetric flask to achieve a stock solution of 1000 mcg/ml which was then frozen in small aliquots. Further dilutions as necessary for susceptibility testing were also achieved through the addition of sterile distilled water to this stock concentration. Viable counts were made by plating appropriate dilutions from the 10^-4 series on TSA and counting colonies after 24 hours incubation at 35° C. Viable counts were also made on each microorganism at the time of MDC and again at the end of the 24 hour test period to confirm the minimum inhibitory concentration (MIC).
(§4) The experimental apparatus used in this study to monitor the inhibition of growth due to the addition of antibiotics consisted of test tubes, up to and including 8, size 17×100 mm, each containing a sterilized (by boiling) Pt-SCE combination electrode (Sargent-Welch, S-30101-15), plus TSB, microorganisms, and antibiotic where appropriate, positioned in a 35° C. heating block. Leads from the electrode were connected to a high impedance (greater than 10^8 ohms) potentiometer, or voltage following device, which in turn was connected to a strip chart recorder (Hewlett-Packard type 680M). Microbial growth was measured by an increase in voltage in the negative direction with time as recorded on the strip chart recorder.
(§5) FIG. 12 is a stripchart recording of the antimicrobial response curve of a four channeled expriment involving a clinical specimen of the non-hydrogenproducing, Gram-positive bacteria Staphylococcus epidermidis treated with 0.012, 0.5 and 1.0 mcg/ml of the antibiotic ampicillin as shown in curves B, C and D respectively. […]

[2] = test system: S. aureus (clinical); assay: Electroanalytically determined MIC, gram-positive bacteria; type: cell-based; conditions: Staphylococcus aureus, 24 h
Description: as §1, §2, §3, §4, §5

[3] = test system: S. aureus (ATCC); assay: as above; type: cell-based, "Seattle Strain" ATCC 25923; conditions: Staphylococcus aureus, 24 h
Description: as §1, §2, §3, §4, §5

[4] = test system: S. epidermidis (ATCC); assay: as above; type: cell-based, Staphylococcus epiderdimis ATCC 14990; conditions: Staphylococcus epidermidis, 24 h
Description: as §1, §2, §3, §4, §5

[5] = test system: S. pyogenes (ATCC); assay: as above; type: cell-based, ATCC 10389; conditions: Streptococcus pyogenes, 24 h
Description: as §1, with “Schering. […]” for “Schering.”
as §4, with “Leads from the electrode were connected to a high impedance (greater than 10^8 ohms) potentiometer, or voltage following device, which in turn was connected to a strip chart recorder (Hewlett-Packard type 680M).” left out, “recorder. […]” for “recorder.”

[6] = test system: S. pyogenes (clinical); assay: as above; type: cell-based; conditions: Streptococcus pyogenes, 24 h
Description: as §1, §2, §3, §4, §5

[7] = test system: K. pneumoniae (ATCC); assay: Electroanalytically determined MIC / antimicrobial response curve, gram-negative bacteria; type: cell-based, Klebsiella pneumoniae ATCC 27736
Description: as §1, §2, §3, §4, §5

[8] = test system: E. coli (ATCC); assay: Electroanalytically determined MIC, gram-negative bacteria; type: cell-based, Escherichia coli, "Seattle Strain" ATCC 25922
Description: as §1, §2, §3, §4, §5

[9] = test system: E. coli (clinical); assay: as above; type: cell-based, Escherichia coli
Description: as §1, §2, §3, §4, §5

[10] = test system: K. pneumoniae (clinical); assay: as above; type: cell-based, Klebsiella pneumoniae
Description: as §1, §2, §3
as §4, with “recorder. […]” for “recorder.”

[11] = test system: P. aeruginosa (clinical); assay: as above; type: cell-based, Pseudomonas aeruginosa
Description: as §1, §2, §3, §4, §5

[12] = test system: P. aeruginosa (ATCC); assay: as above; type: cell-based, Pseudomonas aeruginosa, ATCC 9721
Description: as §1, §2, §3, §4, §5

| Compound | MIC [1] [µg/mL] | MIC [2] [µg/mL] | MIC [3] [µg/mL] | MIC [4] [µg/mL] | MIC [5] [µg/mL] | MIC [6] [µg/mL] | MIC ([7]; Klebsiella pneumoniae, 24 h) [µg/mL] | MIC ([8]; Escherichia coli, 24 h) [µg/mL] | MIC ([9]; Escherichia coli, 24 h) [µg/mL] | MIC ([10]; Klebsiella pneumoniae, 24 h) [µg/mL] | also measured |
| --- | --- | --- | --- | --- | --- | --- | --- | --- | --- | --- | --- |
| CC1(C)S[C@@H]2[C@H](NC(=O)Cc3ccccc3)C(=O)N2[C@H]1C(=O)O [Pen G, penicillin G potassium] | 0.1 | 0.05 | 0.05 | 0.08 to 0.1 |  |  |  |  |  |  |  |
| [H]/N=C(/N)N[C@H]1[C@H](O)[C@@H](O)[C@H](O[C@@H]2O[C@@H](C)[C@](O)(C=O)[C@H]2O[C@@H]2O[C@@H](CO)[C@H](O)[C@@H](O)[C@@H]2NC)[C@@H](N/C(N)=N\[H])[C@@H]1O [Strep, streptomycin sulfate] | 4 to 6 | 8 | 8 | 4 | 0.1 | 0.1 | 5 to 6 | 9 | 9 | 6 |  |
| CN(C)[C@@H]1C(=O)C(C(N)=O)=C(O)[C@@]2(O)C(=O)C3=C(O)c4c(O)cccc4[C@@](C)(O)[C@H]3C[C@@H]12 [Tetra, tetracycline] | 2 | 2 | 2 | 1 to 2 |  |  | 5 to 6 | 1 | 4 | 5 to 6 | MIC ([11]; Pseudomonas aeruginosa, 24 h): 64 µg/mL; MIC ([12]; Pseudomonas aeruginosa, 24 h): 64 µg/mL |
| NC[C@H]1O[C@H](O[C@H]2[C@H](O)[C@@H](O[C@H]3O[C@H](CO)[C@@H](O)[C@H](N)[C@H]3O)[C@H](N)C[C@@H]2N)[C@H](N)C[C@@H]1O [Tobra, tobramycin] |  |  |  |  |  |  |  |  |  |  | MIC ([11]; Pseudomonas aeruginosa, P. aeruginosa (clinical), TSB, 35° C., 24 hour test period, read-out: MIC): 8 µg/mL; MIC ([12]; Pseudomonas aeruginosa, P. aeruginosa (ATCC), TSB, 35° C., 24 hour test period, read-out: MIC): 4 µg/mL |
| CN[C@H](CC(C)C)C(=O)N[C@H]1C(=O)N[C@@H](CC(N)=O)C(=O)N[C@H]2C(=O)N[C@H]3C(=O)N[C@H](C(=O)N[C@H](C(=O)O)c4cc(O)cc(O)c4-c4cc3ccc4O)[C@H](O)c3ccc(c(Cl)c3)Oc3cc2cc(c3O[C@@H]2O[C@H](CO)[C@@H](O)[C@H](O)[C@H]2O[C@H]2C[C@](C)(N)[C@H](O)[C@H](C)O2)Oc2ccc(cc2Cl)[C@H]1O [Vanco, vancomycin hydrochloride] | 2 to 3 | 2 | 1 | 1.5 | 0.1 to 0.5 | 0.5 |  |  |  |  |  |
| gentamicin |  |  |  |  |  |  |  |  |  |  | MIC ([11]; P. aeruginosa (clinical), TSB, 35° C., 24 hour test period): 4.0 µg/mL; MIC ([7]; K. pneumoniae (ATCC), TSB, 35° C., 24 hour test period): 0.5 µg/mL; MIC ([8]; E. coli (ATCC), TSB, 35° C., 24 hour test period): 0.5 µg/mL; MIC ([9]; E. coli (clinical), TSB, 35° C., 24 hour test period): 1.0 µg/mL; MIC ([12]; P. aeruginosa (ATCC), TSB, 35° C., 24 hour test period): 2.0 µg/mL; MIC ([10]; K. pneumoniae (clinical), TSB, 35° C., 24 hour test period): 0.5 µg/mL |
